Source: ChEMBL document CHEMBL1146469, “Tasnemoxides A-C, new cytotoxic cyclic norsesterterpene peroxides from the Red Sea sponge Diacarnus erythraenus” (J Nat Prod, 2004)

Tests used:
Format in all cases: functional, cell-based
[1] = system: HT-29; experiment: Cytotoxicity against human HT-29 cells by dilution assay
[2] = system: P388; experiment: Cytotoxicity against mouse P388 cells by dilution assay
[3] = system: A549; experiment: Cytotoxicity against human A549 cells by dilution assay

Measured: IC50

CC1=C(CCC(C)(O)/C=C/C[C@@]2(C)CC[C@H]([C@H](C)C(=O)O)OO2)C(C)(C)CCC1 (some centres undefined) [TASNEMOXIDE A]
> 1 µg/mL: all assays above

C=C(CCC1=C(C)CCCC1(C)C)C(O)CC[C@@]1(C)CC[C@H]([C@H](C)C(=O)O)OO1 (some centres undefined) [TASNEMOXIDE B]
> 1 µg/mL: all assays above

C=C(CCC[C@@]1(C)CC[C@H]([C@H](C)C(=O)OC)OO1)CCC1(O)C(=C)CCCC1(C)C (some centres undefined) [TASNEMOXIDE C]
> 1 µg/mL: all assays above
